Common to all, as to assay: In vitro antibacterial activity on pathogenic bacteria for fish (agar MIC, Test Example 1)
What all share (format): cell-based

For one assay, the system named is Aeromonas hydrophila. To be noted: 20 h; for MIC: Aeromonas hydrophila; for MIC (minimum growth-inhibition concentration): Mueller-Hinton agar. The method, then:
(§1) In vitro antibacterial activity on pathogenic-bacteria for fish
(§2) Each of the test strains was cultured over-night, and each culture broth (containing about 10^6 cells/ml) was innoculated in Mueller-Hinton agar (DIFCO) supplied with 1.0-2.0% sodium chloride and containing the test compound at each specified concentration.

In the next assay the test system is Pasteurella piscicida. To be noted: 20 h; for MIC: Photobacterium damselae; for MIC (minimum growth-inhibition concentration): Mueller-Hinton agar. The method, then: as §1, §2
A further assay concerns Vibrio anguillarum. The settings on record: 20 h, 25-30 °C; for MIC: Vibrio anguillarum, read-out: MIC (minimum growth-inhibition concentration); for MIC (minimum growth-inhibition concentration): Mueller-Hinton agar. The method, then: as §1, §2
Where [1] appears, read: Vibrio anguillarum strain NA8340, Mueller-Hinton agar.
[2] abbreviates: Vibrio anguillarum strain NA8341, Mueller-Hinton agar.
The mark [3] stands for this setting: Vibrio anguillarum strain NA8346, Mueller-Hinton agar.
Where [4] appears, read: Vibrio anguillarum strain NA8347, Mueller-Hinton agar.
[5] abbreviates: Vibrio anguillarum strain NH8410, Mueller-Hinton agar.
[6] abbreviates: Aeromonas hydrophila strain C 44, 25-30 °C.
Where [7] appears, read: Aeromonas hydrophila strain KA8301, 25-30 °C.
Where [8] appears, read: Aeromonas hydrophila strain KA8414, 25-30 °C.
Setting [9] is: Aeromonas hydrophila strain KA8416, 25-30 °C.
The mark [10] stands for this setting: Aeromonas hydrophila strain M 183, 25-30 °C.
Setting [11] is: Pasteurella piscicida strain EH8304, 25-30 °C.
Where [12] appears, read: Pasteurella piscicida strain EH8309, 25-30 °C.
Where [13] appears, read: Pasteurella piscicida strain EH8312, 25-30 °C.
Setting [14] is: Pasteurella piscicida strain EH8313, 25-30 °C.
The mark [15] stands for this setting: Pasteurella piscicida strain NG8319, 25-30 °C.
Where [16] appears, read: Vibrio anguillarum strain NA8340.
The mark [17] stands for this setting: Vibrio anguillarum strain NA8341.
[18] abbreviates: Vibrio anguillarum strain NA8346.
The mark [19] stands for this setting: Vibrio anguillarum strain NA8347.
The mark [20] stands for this setting: Vibrio anguillarum strain NH8410.
The mark [21] stands for this setting: Aeromonas hydrophila strain C 44, Mueller-Hinton agar, 25-30 °C, read-out: MIC (minimum growth-inhibition concentration).
Where [22] appears, read: Aeromonas hydrophila strain KA8301, Mueller-Hinton agar, 25-30 °C, read-out: MIC (minimum growth-inhibition concentration).
Where [23] appears, read: Aeromonas hydrophila strain KA8414, Mueller-Hinton agar, 25-30 °C, read-out: MIC (minimum growth-inhibition concentration).
Setting [24] is: Aeromonas hydrophila strain KA8416, Mueller-Hinton agar, 25-30 °C, read-out: MIC (minimum growth-inhibition concentration).
[25] abbreviates: Aeromonas hydrophila strain M 183, Mueller-Hinton agar, 25-30 °C, read-out: MIC (minimum growth-inhibition concentration).
Where [26] appears, read: Pasteurella piscicida strain EH8304, Mueller-Hinton agar, 25-30 °C, read-out: MIC (minimum growth-inhibition concentration).
The mark [27] stands for this setting: Pasteurella piscicida strain EH8309, Mueller-Hinton agar, 25-30 °C, read-out: MIC (minimum growth-inhibition concentration).
Where [28] appears, read: Pasteurella piscicida strain EH8312, Mueller-Hinton agar, 25-30 °C, read-out: MIC (minimum growth-inhibition concentration).
[29] abbreviates: Pasteurella piscicida strain EH8313, Mueller-Hinton agar, 25-30 °C, read-out: MIC (minimum growth-inhibition concentration).
Setting [30] is: Pasteurella piscicida strain NG8319, Mueller-Hinton agar, 25-30 °C, read-out: MIC (minimum growth-inhibition concentration).

Values after ≈ are worked out from the molar mass of the structure shown. Where a name gives a salt, the structure may show the parent alone. Read-outs that look alike come from different tables or passages of the source.

Here are results for 6 compounds from patent publication US5281596A, “Antibacterial drugs for fish” (Bayer Aktiengesellschaft, priority 1986, dated 1994).

`O=C(O)c1cn(C2CC2)c2cc(N3CCNCC3)c(F)cc2c1=O` [Compound A, hydrochloride of 1-cyclopropyl-6-fluoro-1,4-dihydro-4-oxo-7-piperazino-quinoline-3-carboxylic acid]: the MIC in the assay on Aeromonas hydrophila (read-out: MIC (minimum growth-inhibition concentration), Aeromonas hydrophila strain C 44, Mueller-Hinton agar, 25-30 °C) was under 0.025 µg/mL; in the assay on Aeromonas hydrophila (read-out: MIC (minimum growth-inhibition concentration), Aeromonas hydrophila strain KA8301, Mueller-Hinton agar, 25-30 °C) it was under 0.025 µg/mL; in the assay on Aeromonas hydrophila (read-out: MIC (minimum growth-inhibition concentration), Aeromonas hydrophila strain KA8414, Mueller-Hinton agar, 25-30 °C) it was under 0.025 µg/mL; with Aeromonas hydrophila (read-out: MIC (minimum growth-inhibition concentration), Aeromonas hydrophila strain KA8416, Mueller-Hinton agar, 25-30 °C), under 0.025 µg/mL; with Aeromonas hydrophila (read-out: MIC (minimum growth-inhibition concentration), Aeromonas hydrophila strain M 183, Mueller-Hinton agar, 25-30 °C) it was under 0.025 µg/mL; in the assay with Pasteurella piscicida (read-out: MIC (minimum growth-inhibition concentration), Pasteurella piscicida strain EH8304, Mueller-Hinton agar, 25-30 °C), 0.05 µg/mL. The MIC in the assay with Pasteurella piscicida (read-out: MIC (minimum growth-inhibition concentration), Pasteurella piscicida strain EH8309, Mueller-Hinton agar, 25-30 °C) was under 0.025 µg/mL; in the assay with Pasteurella piscicida (read-out: MIC (minimum growth-inhibition concentration), Pasteurella piscicida strain EH8312, Mueller-Hinton agar, 25-30 °C), 0.05 µg/mL; with Pasteurella piscicida (read-out: MIC (minimum growth-inhibition concentration), Pasteurella piscicida strain NG8319, Mueller-Hinton agar, 25-30 °C), under 0.025 µg/mL; in the assay with Vibrio anguillarum (setting [1]) it was under 0.025 µg/mL; with Vibrio anguillarum (setting [2]) it was under 0.025 µg/mL; in the assay with Vibrio anguillarum (setting [3]), under 0.025 µg/mL. Further, the MIC in the assay with Vibrio anguillarum (setting [4]) and in the assay with Vibrio anguillarum (setting [5]) was under 0.025 µg/mL in each case.
Regarding `CCN1CCN(c2cc3c(cc2F)c(=O)c(C(=O)O)cn3C2CC2)CC1` [Compound E, dihydrate of hydrochloride of 1-cyclopropyl-6-fluoro-1,4-dihydro-4-oxo-7-(4-ethylpiperazino)-quinoline-3-carboxylic acid], the “MIC (minimum growth-inhibition concentration)” value against Aeromonas hydrophila (setting [6]) was under 0.025 µg/mL; in the assay with Aeromonas hydrophila (setting [7]) it was 0.05 µg/mL; in the assay with Aeromonas hydrophila (setting [8]), under 0.025 µg/mL; against Aeromonas hydrophila (setting [9]), under 0.025 µg/mL; in the assay with Aeromonas hydrophila (setting [10]), under 0.025 µg/mL; in the assay on Pasteurella piscicida (setting [11]), 0.05 µg/mL. Further, the “MIC (minimum growth-inhibition concentration)” value against Pasteurella piscicida (setting [12]), in the assay with Pasteurella piscicida (setting [13]), against Pasteurella piscicida (setting [14]), against Pasteurella piscicida (setting [15]), in the assay with Vibrio anguillarum (setting [16]) and with Vibrio anguillarum (setting [17]) was 0.05 µg/mL throughout. Also, the “MIC (minimum growth-inhibition concentration)” value against Vibrio anguillarum (setting [18]), in the assay with Vibrio anguillarum (setting [19]) and in the assay with Vibrio anguillarum (setting [20]) was 0.05 µg/mL throughout.
For `O=C(O)c1cn(C2CC2)c2cc(N3CCN(CCO)CC3)c(F)cc2c1=O` [Compound F, hydrochloride of 1-cyclopropyl-6-fluoro-1,4-dihydro-4-oxo-7-(4-β-hydroxyethyl-piperazino)-quinoline-3-carboxylic acid], the MIC in the assay with Aeromonas hydrophila (setting [21]) was under 0.025 µg/mL; in the assay with Aeromonas hydrophila (setting [22]), 0.05 µg/mL; with Aeromonas hydrophila (setting [23]), under 0.025 µg/mL; with Aeromonas hydrophila (setting [24]) it was under 0.025 µg/mL; with Aeromonas hydrophila (setting [25]), under 0.025 µg/mL; with Pasteurella piscicida (setting [26]), 0.1 µg/mL. The MIC in the assay on Pasteurella piscicida (setting [27]), in the assay on Pasteurella piscicida (setting [28]), in the assay on Pasteurella piscicida (setting [29]), in the assay on Pasteurella piscicida (setting [30]), in the assay on Vibrio anguillarum (setting [1]) and with Vibrio anguillarum (setting [2]) was 0.1 µg/mL in each case. For the same compound, the MIC came out at 0.1 µg/mL in the assay on Vibrio anguillarum (setting [3]), 0.05 µg/mL in the assay with Vibrio anguillarum (setting [4]) and 0.1 µg/mL in the assay on Vibrio anguillarum (setting [5]).
Consider `CN1CCN(c2cc3c(cc2F)c(=O)c(C(=O)O)cn3C2CC2)CC1` [Compound C, hydrochloride of 1-cyclopropyl-6-fluoro-1,4-dihydro-4-oxo-7-(4-methylpiperazino)quinoline-3-carboxylic acid], for which the MIC with Aeromonas hydrophila (setting [21]) was under 0.025 µg/mL; with Aeromonas hydrophila (setting [22]), under 0.025 µg/mL; in the assay with Aeromonas hydrophila (setting [23]), under 0.025 µg/mL; with Aeromonas hydrophila (setting [24]) it was under 0.025 µg/mL; in the assay with Aeromonas hydrophila (setting [25]), under 0.025 µg/mL; with Pasteurella piscicida (setting [26]), 0.05 µg/mL. The MIC in the assay on Pasteurella piscicida (setting [27]) is 0.05 µg/mL; in the assay on Pasteurella piscicida (setting [28]), 0.05 µg/mL; in the assay on Pasteurella piscicida (setting [29]) it was 0.05 µg/mL; in the assay with Pasteurella piscicida (setting [30]), 0.05 µg/mL; with Vibrio anguillarum (setting [1]), under 0.025 µg/mL; in the assay with Vibrio anguillarum (setting [2]), under 0.025 µg/mL. The MIC in the assay on Vibrio anguillarum (setting [3]), in the assay on Vibrio anguillarum (setting [4]) and in the assay with Vibrio anguillarum (setting [5]) was under 0.025 µg/mL in each case.
As to `CCN1CCN(c2cc3c(cc2F)c(=O)c(C(=O)O)cn3C2CC2)CC1` [Compound G, embonate of 1-cyclopropyl-6-fluoro-1,4-dihydro-4-oxo-7-(4-ethylpiperazino)-quinoline-3-carboxylic acid], the “MIC (minimum growth-inhibition concentration)” value with Aeromonas hydrophila (setting [6]) stood at 0.05 µg/mL (≈ 0.139 µM); in the assay with Aeromonas hydrophila (setting [7]), 0.05 µg/mL (≈ 0.139 µM); in the assay with Aeromonas hydrophila (setting [8]), 0.05 µg/mL (≈ 0.139 µM); in the assay with Aeromonas hydrophila (setting [9]) it was 0.05 µg/mL (≈ 0.139 µM); against Aeromonas hydrophila (setting [10]), 0.05 µg/mL (≈ 0.139 µM); with Pasteurella piscicida (setting [11]), 0.1 µg/mL (≈ 0.278 µM). The “MIC (minimum growth-inhibition concentration)” value in the assay on Pasteurella piscicida (setting [12]) came out at 0.1 µg/mL (≈ 0.278 µM); against Pasteurella piscicida (setting [13]) it was 0.05 µg/mL (≈ 0.139 µM); with Pasteurella piscicida (setting [14]) it was 0.05 µg/mL (≈ 0.139 µM); with Pasteurella piscicida (setting [15]) it was 0.01 µg/mL (≈ 0.0278 µM); with Vibrio anguillarum (setting [16]), 0.05 µg/mL (≈ 0.139 µM); against Vibrio anguillarum (setting [17]) it was 0.05 µg/mL (≈ 0.139 µM). Besides, the “MIC (minimum growth-inhibition concentration)” value with Vibrio anguillarum (setting [18]), with Vibrio anguillarum (setting [19]) and against Vibrio anguillarum (setting [20]) was 0.05 µg/mL (≈ 0.139 µM) in each case.
For `O=C(O)c1cn(C2CC2)c2cc(N3CCNCC3)c(F)cc2c1=O` [Compound B, monohydrate of hydrochloride of 1-cyclopropyl-6-fluoro-1,4-dihydro-4-oxo-7-piperazino-quinoline-3-carboxylic acid], the “MIC (minimum growth-inhibition concentration)” value in the assay with Aeromonas hydrophila (setting [6]) was under 0.0125 µg/mL; in the assay on Aeromonas hydrophila (setting [7]), under 0.0125 µg/mL; in the assay on Aeromonas hydrophila (setting [8]), under 0.0125 µg/mL; in the assay with Aeromonas hydrophila (setting [9]) it was under 0.0125 µg/mL; against Aeromonas hydrophila (setting [10]), under 0.0125 µg/mL; in the assay with Pasteurella piscicida (setting [11]), 0.025 µg/mL. The “MIC (minimum growth-inhibition concentration)” value was under 0.0125 µg/mL in the assay with Pasteurella piscicida (setting [12]); 0.025 µg/mL against Pasteurella piscicida (setting [13]); 0.025 µg/mL with Pasteurella piscicida (setting [15]); 0.025 µg/mL against Vibrio anguillarum (setting [16]); 0.025 µg/mL in the assay on Vibrio anguillarum (setting [17]); 0.025 µg/mL in the assay on Vibrio anguillarum (setting [18]). Moreover, the “MIC (minimum growth-inhibition concentration)” value in the assay on Vibrio anguillarum (setting [19]) and against Vibrio anguillarum (setting [20]) was 0.025 µg/mL each time. In the assay with Pasteurella piscicida (read-out: MIC (minimum growth-inhibition concentration), Pasteurella piscicida strain EH8313, Mueller-Hinton agar, 25-30 °C), the MIC stood at 0.025 µg/mL.
